Laboratory results published in the supplement of paper PMC10307832.

Assays:
Assay in all cases: relative viability (nuclei count vs DMSO), 5 days (fraction); higher = more cells survive
Motesanib + Decitabine = compound: CC1(C)CNc2cc(NC(=O)c3cccnc3NCc3ccncc3)ccc21 [Motesanib] + Nc1ncn([C@H]2C[C@H](O)[C@@H](CO)O2)c(=O)n1 [Decitabine] (partner 2 µM)
Procedure, shortened: (§1)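 Lung cancer cell lines in 1536-well plates were dosed by pin tool the day after seeding, either with one drug alone or with a fixed anchor-drug dose plus five library-drug doses (not always all listed) in √10 steps. After 5 days, cells were fixed and their nuclei stained in one step (final 0.05% Triton X-100, 1% formaldehyde, 1 ug/ml Hoechst), then counted on 4× images. Relative viability is the nuclei count in treated wells divided by that in vehicle wells. Values are medians of duplicate plates.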

Motesanib + Pictilisib = compound: CC1(C)CNc2cc(NC(=O)c3cccnc3NCc3ccncc3)ccc21 [Motesanib] + CS(=O)(=O)N1CCN(Cc2cc3nc(-c4cccc5[nH]ncc45)nc(N4CCOCC4)c3s2)CC1 [Pictilisib] (partner 1 µM)
Procedure, shortened: as §1

[1] = compound: C[C@@]1(C(=O)Nc2ccc(F)nc2)CCCN1c1nc(Nc2cc(C3CC3)n[nH]2)c2cccn2n1 + NC(=O)Nc1cc(-c2cccc(F)c2)sc1C(=O)N[C@H]1CCCNC1 [AZD7762] (partner 0.2 µM)
Procedure, shortened: as §1

[2] = compound: C[C@@]1(C(=O)Nc2ccc(F)nc2)CCCN1c1nc(Nc2cc(C3CC3)n[nH]2)c2cccn2n1 + CC(=O)Nc1cccc(-n2c(=O)n(C3CC3)c(=O)c3c(Nc4ccc(I)cc4F)n(C)c(=O)c(C)c32)c1 [Trametinib] (partner 0.02 µM)
Procedure, shortened: as §1

Cell Line | relative viability (Motesanib + Decitabine; first compound 0.01 µM) | relative viability (Motesanib + Decitabine; first compound 0.03162 µM) | relative viability (Motesanib + Decitabine; first compound 0.1 µM) | relative viability (Motesanib + Decitabine; first compound 0.3162 µM) | relative viability (Motesanib + Decitabine; first compound 1 µM) | relative viability (Motesanib + Pictilisib; first compound 0.03162 µM) | relative viability (Motesanib + Pictilisib; first compound 0.1 µM) | relative viability (Motesanib + Pictilisib; first compound 0.3162 µM) | relative viability (Motesanib + Pictilisib; first compound 1 µM) | relative viability ([1]; first compound 0.04 µM) | relative viability ([1]; first compound 0.1265 µM) | relative viability ([1]; first compound 0.4 µM) | relative viability ([1]; first compound 1.265 µM) | relative viability ([2]; first compound 0.04 µM) | relative viability ([2]; first compound 0.1265 µM) | relative viability ([2]; first compound 0.4 µM) | relative viability ([2]; first compound 1.265 µM) | relative viability (Motesanib + Pictilisib; first compound 0.01 µM)
NCI-H2405 | 0.77 | 0.773 | 0.719 | 0.833 | 0.78 | 0.393 | 0.433 | 0.425 | 0.434 | 0.619 | 0.483 | 0.472 | 0.313 | 0.461 | 0.382 | 0.353 | 0.381 | 
NCI-H3122 | 0.436 | 0.409 | 0.422 | 0.548 | 0.614 | 0.534 | 0.618 | 0.626 | 0.667 | 0.79 | 0.88 | 0.651 | 0.831 | 0.181 | 0.202 | 0.181 | 0.2 | 0.46
PC-3 [JPC-3] | 0.803 | 0.836 | 0.858 | 0.897 | 1.01 | 0.858 | 0.733 | 0.853 | 0.706 | 0.7 | 0.689 | 0.551 | 0.415 | 0.628 | 0.441 | 0.513 | 0.603 | 0.774
PC-14 | 0.243 | 0.174 | 0.275 | 0.257 | 0.231 | 0.695 | 0.84 | 0.72 | 0.858 | 0.391 | 0.394 | 0.308 | 0.348 | 0.765 | 0.649 | 0.696 | 0.687 | 0.729
RERF-LC-KJ | 0.652 | 0.752 | 0.719 | 0.67 | 0.665 | 0.63 | 0.621 | 0.613 | 0.61 | 0.976 | 0.688 | 0.737 | 0.723 | 0.84 | 0.665 | 0.639 | 0.685 | 0.507
